From a melting point compilation (Tetko et al.; mined from patent text by program, amines drawn as free bases though some values may be those of a salt) come the findings set out here.

For orientation: melting point means the temperature of the solid-liquid transition. The compound `Cc1nc(N)sc1-c1ccnc(Nc2ccc(N3CCSCC3)cc2)n1` returned a melting point of 180 to 182 °C. On to `COc1ccc(-c2cn(C)cc(-c3ccccc3)c2=O)cc1C`, for which the melting point is 157 to 160 °C. `OC1=Cc2ccccc2C=Cc2cc(Br)ccc21` registered a melting point of 148 to 151 °C. Under `CN1C(=O)C2(COc3cc4c(cc32)OCCO4)c2c(NC(=O)C(C)(C)C)cccc21` (stereo not given) stands 182 to 184 °C; under `CCCCCC1=CCC(c2cc(F)cc(F)c2)C=C1` (stereo not given), 31 °C; under `COc1cccc(Cn2cc3c(-c4cccc(C(=O)NCCO)c4)cccc3n2)n1`, 104 to 105 °C.

Compound `CCCCC(O)Cc1c(O)c2cccnc2n(-c2ccccc2)c1=O` (stereo not given) yielded a melting point of 184 to 186 °C.

Regarding `CCOC(=O)c1ccc(OCc2ccc3c(c2)C(C)(C)CCC3(C)C)cc1`, the melting point lay in the range of 109 to 111 °C.

Take `CCCc1c(C(=O)NC2CC2)nnn1-c1ccc(C(=O)NCC)cc1O`: the melting point was 203 °C. As for `O=c1ccc(-c2ccc(OC3CCN(C4CCCC4)CC3)cc2)n[nH]1`, the melting point was in the range of 211 to 213 °C. `CC1(C)C(=O)Nc2cc3[nH]c(N)nc3cc21`: the melting point fell in the range of 300 to 305 °C. Consider `CCCCCCCCCCNC(=O)c1ccc(N(CC(=O)O)CC(=O)O)cc1`, for which the melting point lay within 155 to 157 °C. For the compound `COC(=O)c1cn(Cc2ccc3cc(OCc4ccccc4)ccc3c2)cc1-c1ccccc1`, the melting point is 109 to 110 °C. In turn, `Nc1[nH]nc(-c2ccncc2)c1-c1ccc(F)cc1` had a melting point of 116 to 118 °C. Compound `Cc1nc(-c2cccnc2)c(C)[nH]1` came in with a melting point of 179 to 181 °C. The compound `COc1ccc2cc(NC(=O)OC(C)(C)C)ccc2c1` had a melting point of 124 to 127 °C. In turn, `COC(=O)c1ccc2cc(C(=O)c3cc(OCc4ccc(F)cc4)c4c(c3)C(C)(C)CCC4(C)C)ccc2c1` had a melting point of 179 °C. In turn, `NC1c2ccccc2CC12C(=O)Nc1ccccc12` (stereo not given) had a melting point of 195 to 197 °C. Turning to `CCOC(=O)C1=C(C)NC(=S)N(C(=O)OC(C)C)C1c1cccc([N+](=O)[O-])c1` (stereo not given), the melting point was in the range of 150 to 152 °C. `CN(CCCCOCC(=O)O)c1cnc(-c2ccc(F)cc2)c(-c2ccc(F)cc2)n1` came in with a melting point of 116 to 118 °C. `CCOC(=O)c1ccccc1NCC(=O)N(C)c1ccccc1` showed a melting point of 100 °C.

As to `Cc1c(NC(=O)c2ccc(OC[C@@H]3CCCO3)cc2)ccc2cc(CNCCOC(C)C)cnc12`, the melting point is 111 to 113 °C. Turning to `CCOC(=O)NCC(=O)NNC1=NC(C)C(c2ccccc2)=NN1` (stereo not given), the melting point is 144 to 146 °C. Consider `COC(=O)c1nn(-c2cccc(C(F)(F)F)c2)c(=O)cc1OC`, for which the melting point was 124 to 125 °C. Turning to `COC(=O)c1cccc2nc(SCCN3CCN(CC(=O)Nc4c(SC(C)C)cc(C)nc4SC(C)C)CC3)oc12`, the melting point is 60 to 63 °C.

In the case of `CCCCCCCCCCCCCCCCCCCCOC(=O)Nc1ccc(NC(=O)NS(=O)(=O)c2ccc3ccccc3c2)cc1`, the melting point turned out to be 181 °C. Under `O=C(N[C@H]1CC[C@H](CCN2CCN(c3nccc4ccoc34)CC2)CC1)C1CCOCC1` stands 211 °C; under `Cc1ccccc1Sc1cccc(CO)c1O`, 75 to 77 °C; under `O=C(c1ccccc1)c1[nH]c2cc(Cl)ccc2c1CC(=O)N1CCCCC1`, 223 to 224 °C. `CCc1noc(-c2ncn3c2c(=O)n(CC)c2ncccc23)n1` displayed a melting point of 221 °C. `COc1cc(N2CCCC2)ncc1NC(=O)c1cc2cc(F)ccc2n1Cc1cccc(F)c1`: the melting point was in the range of 196 to 198 °C. As for `CC(=NOCC(N)=O)c1ccc(Cl)cc1`, the melting point fell in the range of 103 to 104 °C. Under `CCOC(=O)c1cc(OC(C)=O)c2cc(OC)ccc2c1` stands 104 °C; under `ON=CNc1ccc(N2CCOCC2)nc1`, 172 to 174 °C; under `CS(=O)c1nnc(-c2ccc3ncn(-c4ccc(OC(F)F)cc4)c3c2)o1` (stereo not given), 135 to 136 °C.
